Assay results from patent US20040229268A1, “Method and kit for identifying antibiotic-resistant microorganisms” (priority 2003, published 2004).
Marks after values point to notes of the source that are not given here.

What was measured:
[1] = system: VanA and VanB gene sequences; test: HPA for detecting VanA and VanB gene sequences (Example 12); format: binding, E. faecalis, E. faecium
Experimental: Double-stranded plasmids harboring inserts of either VanA or VanB gene sequences were prepared for use as control templates. More specifically, VanA gene sequences were amplified in a PCR protocol using primers having the sequences of VanA(+)464 Kpn and VanA(−)1325Bam. Similarly, VanB gene sequences were amplified using primers having the sequences of VanB(+)084 Kpn and VanB(−)1006Bam. Genomic DNA samples from bacteria known to have VanA or VanB genotypes were used as templates in the amplification reactions. Blunt-ended amplification products containing VanA gene sequences were ligated into a pPCR-[…] SK(+) (Stratagene; La Jolla, Calif.) plasmid cloning vector, and propagated in E. coli host bacteria using procedures that will be familiar to those having an ordinary level of skill in the art. Double-stranded amplification products containing VanB gene sequences were first digested with KpnI and BamHI, and then ligated into a similarly cleaved pBLUESCRIPT-II KS(+) (Stratagene; La Jolla, Calif.) plasmid cloning vector. Isolated double-stranded plasmid DNA served as controls in hybridization assays.
2′-deoxy probes having the sequences presented under Example 10 were prepared by standard phosphoramidite synthesis. AE labeling of the probes also was performed using standard procedures, as described herein and as will be familiar to those having an ordinary level of skill in the art. Samples of four different cultured VRE bacteria described under the previous Example were lysed essentially as described above. RNA in the samples was hydrolyzed and DNA denatured by incubation of the lysate with hydroxide at elevated temperature. In parallel procedures, samples of two plasmid clones harboring either the VanA or VanB inserts (as described under the previous Example) were also treated to denature DNA. All samples were neutralized by addition of a buffered HCl reagent. AE-labeled probes were added to each of the samples and then hybridized at 55-60° C. for 45 minutes to permit formation of complementary probe:target duplexes. The pan-bacterial probe (Probe Reagent 1, GEN-PROBE® MTC-NI Kit, catalog no. 4573) described under Example 2 was used as a positive control to confirm the presence of bacterial nucleic acid targets. Trials containing labeled probe in the absence of an added target (i.e., “probe alone”) served as negative controls. The AE label joined to probe molecules that remained single-stranded following the hybridization procedure were destroyed by treatment under mild alkaline conditions, and the extent of specific hybrid formation quantified by luminometry as described in the foregoing Examples.

[2] = system: mecA gene; Staphylococcus ribosomal nucleic acids; test: HPA after thermal lysis, base hydrolysis and neutralization (Examples 5-7); format: binding, S. aureus
Experimental: The cultured S. aureus specimens were lysed by suspending 1 μl loops of bacteria in 150 μl of lysis buffer and then incubating at 105° C. for 15 minutes. Next, 100 μl of 2 N LiOH base solution was added and RNA was hydrolyzed by incubating the mixtures at 60° C. for 15 minutes. Hydrolyzed samples were neutralized by the addition of 100 μl of a neutralizing reagent that included 2 N HCl and 100 mM succinate buffer (pH 5.5 prior to acidification with HCl). Specifically hybridized probe was detected by standard HPA, essentially as described in Example 1.
Specimens (1 μl loops of bacteria) were treated and tested essentially as described in Example 5 with the following differences: incubation for lysis was for 15 minutes and incubation for hybridization was for 45 minutes for samples shown in Tables 7-8, while incubation for lysis was for 10 minutes and incubation for hybridization was for 20 minutes for samples shown in Table 9. All of the base-treated solutions were neutralized by the addition of 250 μl of 0.8 N HCl containing 100 mM succinate.
2′-methoxy analogs of the AE-labeled DNA probes were prepared by standard phosphoramidite synthesis using 2′ methoxy phosphoramidite analogs. Additional linker positions, which are indicated by parentheses in Table 11, for probe 2 were also prepared for testing. Deoxy probes and 2′-methoxy probe analogs were tested essentially as described in Example 5, except as noted below. Probes synthesized using 2′-methoxy nucleotide analogs are particularly identified by the “MeO” designations. Brief summaries of the procedures used to obtain the results are appended to the tables.

[3] = ATCC 51299 (VanB), E. faecalis lysate
[4] = ATCC 51575 (VanB), E. faecalis lysate
[5] = ATCC 700221 (VanA), E. faecium lysate
[6] = ATCC 700802 (VanB), E. faecalis lysate
[7] = samples containing nucleic acids from VanB-positive VRE bacteria
[8] = Table 7, lysis 15 minutes, hybridization 45 minutes
[9] = Table 9, lysis 10 minutes, hybridization 20 minutes
[10] = Table 11, neutralize 250 μl 0.8 N HCl containing 100 mM succinate, hybridize 45 minutes at 60° C.
[11] = Table 8, lysis 15 minutes, hybridization 45 minutes
[12] = samples containing nucleic acids from the single VanA-positive bacterial isolate
[13] = VanA-positive bacterial sample ATCC # 700221
[14] = average over VanB-positive bacterial samples ATCC Nos. 51575, 700802 and 51299

Sequence | Probe Hybridization (in RLU) [1, 3] [RLU] | Probe Hybridization (in RLU) [1, 4] [RLU] | Probe Hybridization (in RLU) [1, 5] [RLU] | Probe Hybridization (in RLU) [1, 6] [RLU] | Probe Hybridization (in RLU) ([1]; Probe Alone (no added target)) [RLU] | Probe Hybridization (in RLU) ([1]; VanA clone (plasmid)) [RLU] | Probe Hybridization (in RLU) ([1]; VanB clone (plasmid)) | hybridization signal (in words) [1, 7] | hybridization signal (in words) [1, 12] | other results
CCAAGCACCCGATATACTTTCTTTGCC (DNA, backbone and methylation of C not given here; further chemistry not fully specified; listed as Enterococcus faecalis) [VanB(−)1006] | 8335 | 6300 | 1485 | 9116 | 586 | 1708 | 27493 RLU | very strong signals |  | 
CCACTCAAGAGAGACAACATTTTCGACTAC (chemistry not given here) [S. aureus probe with helpers] |  |  |  |  |  |  |  |  |  | RLU ([2]; Table 6, GP18(Neg), MSSA ATCC #12600): 148,780 RLU; RLU ([2]; Table 6, GP1214(Neg), MSSA ATCC #29247): 203,725 RLU; RLU ([2]; Table 6, GP1217(Pos), MRSA ATCC #33591): 199,476 RLU; RLU ([2]; Table 6, GP1218(Pos), MRSA ATCC #43866): 163,825 RLU
CCGCAGCTTGCATGGACAAATCACTGGC (DNA, backbone and methylation of C not given here; further chemistry not fully specified; listed as Enterococcus faecalis) [VanB(+)084] | 7863 | 6003 | 768 | 10119 | 371 | 716 | 54711 RLU | very strong signals |  | 
CGATTGTGACACGATAGCCATCTTCATGTTGGAGC (DNA, backbone and methylation of C not given here; acridinium ester label on internal non-nucleotide linker; listed as Staphylococcus aureus) [probe 6] |  |  |  |  |  |  |  |  |  | GP18(Neg) RLU [2, 8]: 1195 RLU; GP1217(Pos) RLU [2, 8]: 38158 RLU; Probe alone Avg RLU [2, 8]: 6117 RLU; GP1217(Pos) RLU [2, 9]: 55947 RLU; Probe alone Avg RLU [2, 9]: 1004 RLU; GP1214(Neg) RLU [2, 10]: 1994 RLU; GP1217(Pos) RLU [2, 10]: 43307 RLU; Probe alone Avg RLU [2, 10]: 1540 RLU
CGCATCCATCAGGAAAACGAGCCGG (DNA, backbone and methylation of C not given here; acridinium ester (AE) label attached via linker; listed as Enterococcus faecalis) [VanB(+)428] | 8113 | 6307 | 683 | 9657 | 370 | 684 | 49242 RLU | very strong signals |  | 
CGGACGTTCAGTCATTTCTACTTCACCATTATCGC (DNA, backbone and methylation of C not given here; acridinium ester label on internal non-nucleotide linker; listed as Staphylococcus aureus) [probe 4] |  |  |  |  |  |  |  |  |  | GP18(Neg) RLU [2, 11]: 641 RLU; GP1217(Pos) RLU [2, 11]: 20192 RLU; Probe alone Avg RLU [2, 11]: 690 RLU; GP1217(Pos) RLU [2, 9]: 34352 RLU; Probe alone Avg RLU [2, 9]: 734 RLU
CGTTCAGTACAATGCGGCCG (DNA, backbone and methylation of C not given here; further chemistry not fully specified; listed as Enterococcus faecium) [VanA(−)1325] | 1182 | 1761 | 23523 | 931 | 368 | 24378 | 942 RLU |  | very strong hybridization signals | 
GAGCTTTGAATATCGCAGCCTAC (AE label linker 11/12, chemistry not fully specified; listed as Enterococcus faecalis) [Van A&B(−)734] | 5497 | 5166 | 8901 | 7425 | 240 | 48999 | 718† RLU |  |  | background-corrected hybridization signal relative to negative control (fold greater than background) [1, 13]: about 36 fold; background-corrected hybridization signal relative to negative control (fold greater than background) [1, 14]: about 24 fold; hybridization signal (in words) ([1]; nucleic acids from VRE bacteria either VanA-positive or VanB-positive): very strong signals
GCTGAGCTTTGAATATCGCAGCC (AE label linker 8/9, chemistry not fully specified; listed as Enterococcus faecium) [VanA(−)792] | 2983 | 2254 | 10627 | 3653 | 256 | 52729 | 505 RLU |  | very strong hybridization signals | background-corrected hybridization signal relative to negative control (fold greater than background) [1, 13]: about 40 fold; background-corrected hybridization signal relative to negative control (fold greater than background) [1, 14]: about 10.5 fold
GGGTTGCTCAGAGGAGCATGACGTATCGG (DNA, backbone and methylation of C not given here; further chemistry not fully specified; listed as Enterococcus faecium) [VanA(+)464] | 765 | 696 | 10910 | 757 | 374 | 37434 | 817 RLU |  | very strong hybridization signals | 
